Source: US20240043427A1 (Gilead Sciences, Inc., priority 2020, published 2024)

molecular target: CD73 (Homo sapiens (Human), UniProt P21589); format: biochemical; conditions: 1 mM NaH2PO4 in enzyme buffer, CD73 0.3 nM, AMP 15 uM
Sequence (P21589 27-574): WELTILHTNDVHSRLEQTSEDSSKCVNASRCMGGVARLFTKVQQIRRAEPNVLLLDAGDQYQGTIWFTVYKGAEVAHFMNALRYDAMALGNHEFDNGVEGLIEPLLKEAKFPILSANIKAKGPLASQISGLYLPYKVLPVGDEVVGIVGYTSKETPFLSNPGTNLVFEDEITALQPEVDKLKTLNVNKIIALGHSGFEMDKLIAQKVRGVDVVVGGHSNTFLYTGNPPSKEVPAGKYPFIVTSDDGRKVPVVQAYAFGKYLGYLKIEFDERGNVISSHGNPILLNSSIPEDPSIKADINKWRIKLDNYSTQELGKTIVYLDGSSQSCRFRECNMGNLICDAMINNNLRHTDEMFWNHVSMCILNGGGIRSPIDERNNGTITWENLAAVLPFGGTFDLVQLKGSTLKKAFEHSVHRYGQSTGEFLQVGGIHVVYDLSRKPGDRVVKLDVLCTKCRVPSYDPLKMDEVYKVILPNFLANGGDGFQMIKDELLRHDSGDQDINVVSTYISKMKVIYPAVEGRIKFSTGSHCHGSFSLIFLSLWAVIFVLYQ

Compared with `O=c1[nH]cc(-c2cc([C@H]3C[C@@H]3c3cncnc3)c3ncc(F)n3n2)c(=O)[nH]1` (racemic) [Example 179, 5-(3-fluoro-8-((1S,2S)-2-(pyrimidin-5-yl)cyclopropyl)imidazo[1,2-b]pyridazin-6-yl)pyrimidine-2,4(1H,3H)-dione], `O=c1[nH]cc(-c2cc([C@H]3C[C@@H]3c3cccnc3)c3ncc(F)n3n2)c(=O)[nH]1` (racemic) [Example 180, 5-(3-fluoro-8-((1S,2S)-2-(pyridin-3-yl)cyclopropyl)imidazo[1,2-b]pyridazin-6-yl)pyrimidine-2,4(1H,3H)-dione] is 7.6-fold lower in IC50: 16.7 nM for the first, 2.2 nM for the second.

Compared with `O=c1[nH]cc(-c2cc([C@H]3C[C@@H]3c3ccncc3)c3ncc(F)n3n2)c(=O)[nH]1` (racemic) [Example 181, 5-(3-fluoro-8-((1S,2S)-2-(pyridin-4-yl)cyclopropyl)imidazo[1,2-b]pyridazin-6-yl)pyrimidine-2,4(1H,3H)-dione], `O=c1[nH]cc(-c2cc([C@H]3C[C@@H]3c3ccc(Cl)cc3)c3ncc(F)n3n2)c(=O)[nH]1` (racemic) [Example 182, 5-(8-((1S,2S)-2-(4-chlorophenyl)cyclopropyl)-3-fluoroimidazo[1,2-b]pyridazin-6-yl)pyrimidine-2,4(1H,3H)-dione] is 2-fold lower in IC50: 2.42 nM for the first, 1.24 nM for the second.

`O=c1[nH]cc(-c2cc([C@H]3C[C@@H]3c3ccc(C(F)(F)F)cc3)c3ncc(F)n3n2)c(=O)[nH]1` (racemic) [Example 183, 5-(3-fluoro-8-((1S,2S)-2-(4-(trifluoromethyl)phenyl)cyclopropyl)imidazo[1,2-b]pyridazin-6-yl)pyrimidine-2,4(1H,3H)-dione] and `O=c1[nH]cc(-c2cc([C@H]3C[C@@H]3c3ccc4c(c3)OC(F)(F)O4)c3ncc(F)n3n2)c(=O)[nH]1` (racemic) [Example 278, 5-(8-((1S,2S)-2-(2,2-difluorobenzo[d][1,3]dioxol-5-yl)cyclopropyl)-3-fluoroimidazo[1,2-b]pyridazin-6-yl)pyrimidine-2,4(1H,3H)-dione] are within 1.5-fold of each other in IC50: 2.52 nM for the first, 3.69 nM for the second.

Going from `Cn1cc([C@H]2C[C@@H]2c2cc(-c3c[nH]c(=O)[nH]c3=O)nn3ccnc23)ccc1=O` (racemic) [Example 184, 5-(8-((1S,2S)-2-(1-methyl-6-oxo-1,6-dihydropyridin-3-yl)cyclopropyl)imidazo[1,2-b]pyridazin-6-yl)pyrimidine-2,4(1H,3H)-dione] to `COC(=O)c1ccc([C@H]2C[C@@H]2c2cc(-c3c[nH]c(=O)[nH]c3=O)nn3ccnc23)cc1` (racemic) [Example 281, methyl 4-((1S,2S)-2-(6-(2,4-dioxo-1,2,3,4-tetrahydropyrimidin-5-yl)imidazo[1,2-b]pyridazin-8-yl)cyclopropyl)benzoate], the IC50 falls from 2.86 nM to 1.54 nM (1.9-fold). The second is the more potent here.

`CC1(C)C(=O)N(CC(F)(F)F)c2cc([C@H]3C[C@@H]3c3cc(-c4c[nH]c(=O)[nH]c4=O)nn4c(Cl)cnc34)ccc21` (racemic) [Example 212, 5-[3-chloro-8-[(1S,2S)-2-[3,3-dimethyl-2-oxo-1-(2,2,2-trifluoroethyl)indolin-6-yl]cyclopropyl]imidazo[1,2-b]pyridazin-6-yl]-1H-pyrimidine-2,4-dione] and `O=c1[nH]cc(-c2cc([C@H]3C[C@@H]3c3ccc4c(F)nn(CC(F)(F)F)c4c3)c3ncc(Cl)n3n2)c(=O)[nH]1` (racemic) [Example 213, 5-[3-chloro-8-[(1S,2S)-2-[3-fluoro-1-(2,2,2-trifluoroethyl)indazol-6-yl]cyclopropyl]imidazo[1,2-b]pyridazin-6-yl]-1H-pyrimidine-2,4-dione] are within 1.5-fold of each other in IC50: 1.24 nM for the first, 0.92 nM for the second.

`O=c1[nH]cc(-c2cc([C@H]3C[C@@H]3c3ccc4ncsc4c3)c3nccn3n2)c(=O)[nH]1` (racemic) [Example 276, 5-(8-((1S,2S)-2-(benzo[d]thiazol-6-yl)cyclopropyl)imidazo[1,2-b]pyridazin-6-yl)pyrimidine-2,4(1H,3H)-dione] and `NC(=O)c1cccc([C@H]2C[C@@H]2c2cc(-c3c[nH]c(=O)[nH]c3=O)nn3ccnc23)c1` (racemic) [Example 284, 3-((1S,2S)-2-(6-(2,4-dioxo-1,2,3,4-tetrahydropyrimidin-5-yl)imidazo[1,2-b]pyridazin-8-yl)cyclopropyl)benzamide] are within 1.5-fold of each other in IC50: 0.91 nM for the first, 1.07 nM for the second.

Compared with `O=c1[nH]cc(-c2cc([C@H]3C[C@@H]3c3ccc(OC(F)(F)F)cc3F)c3nccn3n2)c(=O)[nH]1` (racemic) [Example 280, 5-(8-((1S,2S)-2-(2-fluoro-4-(trifluoromethoxy)phenyl)cyclopropyl)imidazo[1,2-b]pyridazin-6-yl)pyrimidine-2,4(1H,3H)-dione], `COC(=O)c1cccc([C@H]2C[C@@H]2c2cc(-c3c[nH]c(=O)[nH]c3=O)nn3ccnc23)c1` (racemic) [Example 282, methyl 3-((1S,2S)-2-(6-(2,4-dioxo-1,2,3,4-tetrahydropyrimidin-5-yl)imidazo[1,2-b]pyridazin-8-yl)cyclopropyl)benzoate] is 3.3-fold lower in IC50: 5.97 nM for the first, 1.81 nM for the second.

First: CNC(=O)c1ccc([C@H]2C[C@@H]2c2cc(-c3c[nH]c(=O)[nH]c3=O)nn3ccnc23)cc1 (racemic) [Example 285, 4-((1S,2S)-2-(6-(2,4-dioxo-1,2,3,4-tetrahydropyrimidin-5-yl)imidazo[1,2-b]pyridazin-8-yl)cyclopropyl)-N-methylbenzamide]
Second: CN(C)C(=O)c1ccc([C@H]2C[C@@H]2c2cc(-c3c[nH]c(=O)[nH]c3=O)nn3ccnc23)cc1 (racemic) [Example 288, 4-((1S,2S)-2-(6-(2,4-dioxo-1,2,3,4-tetrahydropyrimidin-5-yl)imidazo[1,2-b]pyridazin-8-yl)cyclopropyl)-N,N-dimethylbenzamide]
The IC50 of the first is 4.8-fold lower: 1.42 nM for the first, 6.86 nM for the second.

Compared with `CNC(=O)c1cccc([C@H]2C[C@@H]2c2cc(-c3c[nH]c(=O)[nH]c3=O)nn3ccnc23)c1` (racemic) [Example 286, 3-((1S,2S)-2-(6-(2,4-dioxo-1,2,3,4-tetrahydropyrimidin-5-yl)imidazo[1,2-b]pyridazin-8-yl)cyclopropyl)-N-methylbenzamide], `CN(C)C(=O)c1cccc([C@H]2C[C@@H]2c2cc(-c3c[nH]c(=O)[nH]c3=O)nn3ccnc23)c1` (racemic) [Example 287, 3-((1S,2S)-2-(6-(2,4-dioxo-1,2,3,4-tetrahydropyrimidin-5-yl)imidazo[1,2-b]pyridazin-8-yl)cyclopropyl)-N,N-dimethylbenzamide] is 3.3-fold higher in IC50: 1.19 nM for the first, 3.9 nM for the second. The first is the more potent here.

Going from `O=C(c1ccc([C@H]2C[C@@H]2c2cc(-c3c[nH]c(=O)[nH]c3=O)nn3ccnc23)cc1)N1CCC1` (racemic) [Example 289, 5-(8-((1S,2S)-2-(4-(azetidine-1-carbonyl)phenyl)cyclopropyl)imidazo[1,2-b]pyridazin-6-yl)pyrimidine-2,4(1H,3H)-dione] to `CC1CN(C(=O)c2ccc([C@H]3C[C@@H]3c3cc(-c4c[nH]c(=O)[nH]c4=O)nn4ccnc34)cc2)C1` (racemic) [Example 290, 5-(8-((1S,2S)-2-(4-(3-methylazetidine-1-carbonyl)phenyl)cyclopropyl)imidazo[1,2-b]pyridazin-6-yl)pyrimidine-2,4(1H,3H)-dione], the IC50 rises from 2.27 nM to 3.46 nM (1.5-fold). The first is the more potent here.

First: O=C(c1ccc([C@H]2C[C@@H]2c2cc(-c3c[nH]c(=O)[nH]c3=O)nn3ccnc23)cc1)N1CC(C(F)(F)F)C1 (racemic) [Example 291, 5-(8-((1S,2S)-2-(4-(3-(trifluoromethyl)azetidine-1-carbonyl)phenyl)cyclopropyl)imidazo[1,2-b]pyridazin-6-yl)pyrimidine-2,4(1H,3H)-dione]
Second: O=C(c1cccc([C@H]2C[C@@H]2c2cc(-c3c[nH]c(=O)[nH]c3=O)nn3ccnc23)c1)N1CC(C(F)(F)F)C1 (racemic) [Example 296, 5-(8-((1S,2S)-2-(3-(3-(trifluoromethyl)azetidine-1-carbonyl)phenyl)cyclopropyl)imidazo[1,2-b]pyridazin-6-yl)pyrimidine-2,4(1H,3H)-dione]
The IC50 of the first is 1.5-fold higher: 3.25 nM for the first, 2.14 nM for the second.

First: O=C(c1ccc([C@H]2C[C@@H]2c2cc(-c3c[nH]c(=O)[nH]c3=O)nn3ccnc23)cc1)N1CC(F)(F)C1 (racemic) [Example 292, 5-(8-((1S,2S)-2-(4-(3,3-difluoroazetidine-1-carbonyl)phenyl)cyclopropyl)imidazo[1,2-b]pyridazin-6-yl)pyrimidine-2,4(1H,3H)-dione]
Second: CC1(C)CN(C(=O)c2ccc([C@H]3C[C@@H]3c3cc(-c4c[nH]c(=O)[nH]c4=O)nn4ccnc34)cc2)C1 (racemic) [Example 293, 5-(8-((1S,2S)-2-(4-(3,3-dimethylazetidine-1-carbonyl)phenyl)cyclopropyl)imidazo[1,2-b]pyridazin-6-yl)pyrimidine-2,4(1H,3H)-dione]
The IC50 of the first is 2.3-fold lower: 2.08 nM for the first, 4.75 nM for the second.

First: O=C(c1cccc([C@H]2C[C@@H]2c2cc(-c3c[nH]c(=O)[nH]c3=O)nn3ccnc23)c1)N1CCC1 (racemic) [Example 294, 5-(8-((1S,2S)-2-(3-(azetidine-1-carbonyl)phenyl)cyclopropyl)imidazo[1,2-b]pyridazin-6-yl)pyrimidine-2,4(1H,3H)-dione]
Second: CC1CN(C(=O)c2cccc([C@H]3C[C@@H]3c3cc(-c4c[nH]c(=O)[nH]c4=O)nn4ccnc34)c2)C1 (racemic) [Example 295, 5-(8-((1S,2S)-2-(3-(3-methylazetidine-1-carbonyl)phenyl)cyclopropyl)imidazo[1,2-b]pyridazin-6-yl)pyrimidine-2,4(1H,3H)-dione]
The IC50 of the first is 1.9-fold lower: 1.02 nM for the first, 1.92 nM for the second. The first is the more potent here.

First: O=C(c1cccc([C@H]2C[C@@H]2c2cc(-c3c[nH]c(=O)[nH]c3=O)nn3ccnc23)c1)N1CC(F)(F)C1 (racemic) [Example 297, 5-(8-((1S,2S)-2-(3-(3,3-difluoroazetidine-1-carbonyl)phenyl)cyclopropyl)imidazo[1,2-b]pyridazin-6-yl)pyrimidine-2,4(1H,3H)-dione]
Second: CC1(C)CN(C(=O)c2cccc([C@H]3C[C@@H]3c3cc(-c4c[nH]c(=O)[nH]c4=O)nn4ccnc34)c2)C1 (racemic) [Example 298, 5-(8-((1S,2S)-2-(3-(3,3-dimethylazetidine-1-carbonyl)phenyl)cyclopropyl)imidazo[1,2-b]pyridazin-6-yl)pyrimidine-2,4(1H,3H)-dione]
The IC50 of the first is 2.5-fold lower: 1.51 nM for the first, 3.78 nM for the second.
